From BindingDB's records for doi:10.1021/jm0704550 (Cnrs, 2007)

Biological target: Growth hormone secretagogue receptor type 1 (Homo sapiens, UniProt Q92847)
Experiment: Receptor Binding Studies
Details: not given

Growth hormone secretagogue receptor type 1, sequence (Q92847 whole entry): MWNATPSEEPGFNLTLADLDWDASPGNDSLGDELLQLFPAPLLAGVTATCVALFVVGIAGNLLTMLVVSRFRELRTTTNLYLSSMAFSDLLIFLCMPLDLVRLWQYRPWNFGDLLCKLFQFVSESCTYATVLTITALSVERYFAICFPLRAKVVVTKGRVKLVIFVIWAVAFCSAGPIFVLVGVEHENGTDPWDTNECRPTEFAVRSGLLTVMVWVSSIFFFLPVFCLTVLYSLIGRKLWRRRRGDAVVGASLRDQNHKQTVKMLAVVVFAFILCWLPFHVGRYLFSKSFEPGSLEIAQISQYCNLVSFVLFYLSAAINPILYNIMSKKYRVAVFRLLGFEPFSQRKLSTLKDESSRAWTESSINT

SMILES | EC50 [nM] | Kb [nM] | IC50 [nM]
COc1ccc(Cn2c(CCc3ccccc3)nnc2[C@@H](Cc2c[nH]c3ccccc23)NC(=O)C2CNCCN2)cc1 (stereo partly drawn) [N-[(1R)-2-(1H-indol-3-yl)-1-{4-[(4-methoxyphenyl)methyl]-5-(2-phenylethyl)-4H-1,2,4-triazol-3-yl}ethyl]piperazine-2-carboxamide] | 12 |  | 
COc1ccc(Cn2c(CCc3c[nH]c4ccccc34)nnc2[C@@H](Cc2c[nH]c3ccccc23)NC(=O)[C@H]2CCCCN2)cc1 [(2R)-N-[(1R)-2-(1H-indol-3-yl)-1-{5-[2-(1H-indol-3-yl)ethyl]-4-[(4-methoxyphenyl)methyl]-4H-1,2,4-triazol-3-yl}ethyl]piperidine-2-carboxamide] |  | 8 | 
COc1ccc(Cn2c(CCc3c[nH]c4ccccc34)nnc2[C@@H](Cc2c[nH]c3ccccc23)NC(=O)C2CCCCN2)c(OC)c1 (stereo partly drawn) [N-[(1R)-1-{4-[(2,4-dimethoxyphenyl)methyl]-5-[2-(1H-indol-3-yl)ethyl]-4H-1,2,4-triazol-3-yl}-2-(1H-indol-3-yl)ethyl]piperidine-2-carboxamide] |  | 18 | 
O=C(N[C@H](Cc1c[nH]c2ccccc12)c1nnc(CCc2ccccc2)n1Cc1ccco1)C1CCNCC1 [N-[(1R)-1-[4-(furan-2-ylmethyl)-5-(2-phenylethyl)-4H-1,2,4-triazol-3-yl]-2-(1H-indol-3-yl)ethyl]piperidine-4-carboxamide] | 183 |  | 560
COc1ccc(-n2c(CCc3ccccc3)nnc2[C@@H](Cc2c[nH]c3ccccc23)NC(=O)C2CCNCC2)c(OC)c1 [N-[(1R)-1-[4-(2,4-dimethoxyphenyl)-5-(2-phenylethyl)-4H-1,2,4-triazol-3-yl]-2-(1H-indol-3-yl)ethyl]piperidine-4-carboxamide] | 14 |  | 
COc1ccc(Cn2c(CCc3ccccc3)nnc2[C@@H](Cc2c[nH]c3ccccc23)NC(=O)C2CCNCC2)cc1 [N-[(1R)-2-(1H-indol-3-yl)-1-{4-[(4-methoxyphenyl)methyl]-5-(2-phenylethyl)-4H-1,2,4-triazol-3-yl}ethyl]piperidine-4-carboxamide] | 1.6 |  | 
COc1ccc(Cn2c(CCc3ccccc3)nnc2[C@@H](Cc2c[nH]c3ccccc23)NC(=O)C2CNCCN2)c(OC)c1 (stereo partly drawn) [N-[(1R)-1-{4-[(2,4-dimethoxyphenyl)methyl]-5-(2-phenylethyl)-4H-1,2,4-triazol-3-yl}-2-(1H-indol-3-yl)ethyl]piperazine-2-carboxamide] | 19.6 |  | 
O=C(N[C@H](Cc1c[nH]c2ccccc12)c1nnc(Cc2ccccc2)n1Cc1ccccn1)C1CCNCC1 [N-[(1R)-1-[5-benzyl-4-(pyridin-2-ylmethyl)-4H-1,2,4-triazol-3-yl]-2-(1H-indol-3-yl)ethyl]piperidine-4-carboxamide] |  |  | > 1000
CCc1ccc(Cn2c(CCc3ccccc3)nnc2[C@@H](Cc2c[nH]c3ccccc23)NC(=O)C2CNCCN2)cc1 (stereo partly drawn) [N-[(1R)-1-{4-[(4-ethylphenyl)methyl]-5-(2-phenylethyl)-4H-1,2,4-triazol-3-yl}-2-(1H-indol-3-yl)ethyl]piperazine-2-carboxamide] | 143 |  | 178
COc1ccc(Cn2c(CCc3ccccc3)nnc2[C@@H](Cc2c[nH]c3ccccc23)NC(=O)C2CCOCC2)cc1 [N-[(1R)-2-(1H-indol-3-yl)-1-{4-[(4-methoxyphenyl)methyl]-5-(2-phenylethyl)-4H-1,2,4-triazol-3-yl}ethyl]oxane-4-carboxamide] |  | 51 | 6
COc1ccc(Cn2c(CCc3ccccc3)nnc2[C@@H](Cc2c[nH]c3ccccc23)NC(=O)C2CCNCC2)c(OC)c1 [N-[(1R)-1-{4-[(2,4-dimethoxyphenyl)methyl]-5-(2-phenylethyl)-4H-1,2,4-triazol-3-yl}-2-(1H-indol-3-yl)ethyl]piperidine-4-carboxamide] | 6.1 |  | 
CCc1ccc(Cn2c(CCc3ccccc3)nnc2[C@@H](Cc2c[nH]c3ccccc23)NC(=O)[C@H]2CCCCN2)cc1 [(2R)-N-[(1R)-1-{4-[(4-ethylphenyl)methyl]-5-(2-phenylethyl)-4H-1,2,4-triazol-3-yl}-2-(1H-indol-3-yl)ethyl]piperidine-2-carboxamide] |  |  | 375
COc1ccc(Cn2c(CCc3ccccc3)nnc2[C@@H](Cc2c[nH]c3ccccc23)NC(=O)C2CCCCC2)cc1 [N-[(1R)-2-(1H-indol-3-yl)-1-{4-[(4-methoxyphenyl)methyl]-5-(2-phenylethyl)-4H-1,2,4-triazol-3-yl}ethyl]cyclohexanecarboxamide] | 390 |  | 
COc1ccc(Cn2c(CCc3ccccc3)nnc2[C@@H](Cc2c[nH]c3ccccc23)NC(=O)[C@H]2CCCCN2)c(OC)c1 [(2R)-N-[(1R)-1-{4-[(2,4-dimethoxyphenyl)methyl]-5-(2-phenylethyl)-4H-1,2,4-triazol-3-yl}-2-(1H-indol-3-yl)ethyl]piperidine-2-carboxamide] |  |  | 134
COc1ccc(Cn2c(CCc3c[nH]c4ccccc34)nnc2[C@@H](Cc2c[nH]c3ccccc23)NC(=O)C2CNCCN2)c(OC)c1 (mixture of isomers) [N-[(1R)-1-{4-[(2,4-dimethoxyphenyl)methyl]-5-[2-(1H-indol-3-yl)ethyl]-4H-1,2,4-triazol-3-yl}-2-(1H-indol-3-yl)ethyl]piperazine-2-carboxamide] |  | 5 | 
COc1ccc(Cn2c(CCc3c[nH]c4ccccc34)nnc2[C@@H](Cc2c[nH]c3ccccc23)NC(=O)C2CNCCN2)cc1 (stereo partly drawn) [N-[(1R)-2-(1H-indol-3-yl)-1-{5-[2-(1H-indol-3-yl)ethyl]-4-[(4-methoxyphenyl)methyl]-4H-1,2,4-triazol-3-yl}ethyl]piperazine-2-carboxamide] | 8.7 |  | 
O=C(N[C@H](Cc1c[nH]c2ccccc12)c1nnc(CCc2ccccc2)n1-c1ccccc1)C1CCNCC1 [N-[(1R)-2-(1H-indol-3-yl)-1-[4-phenyl-5-(2-phenylethyl)-4H-1,2,4-triazol-3-yl]ethyl]piperidine-4-carboxamide] |  |  | 468

Same assay, conditions: pH 7.3; 25 °C

SMILES | IC50 [nM] | EC50 [nM] | Kb [nM]
O=C(N[C@H](Cc1c[nH]c2ccccc12)c1nnc(CCc2ccccc2)n1-c1ccccc1)[C@@H]1CCCN1 [(2S)-N-[(1R)-2-(1H-indol-3-yl)-1-[4-phenyl-5-(2-phenylethyl)-4H-1,2,4-triazol-3-yl]ethyl]pyrrolidine-2-carboxamide] | > 1000 |  | 
COc1ccc(Cn2c(CCc3ccccc3)nnc2[C@@H](Cc2c[nH]c3ccccc23)NC(=O)CCN)cc1 [3-amino-N-[(1R)-2-(1H-indol-3-yl)-1-{4-[(4-methoxyphenyl)methyl]-5-(2-phenylethyl)-4H-1,2,4-triazol-3-yl}ethyl]propanamide] |  | 256 | 
COc1ccc(Cn2c(CCc3ccccc3)nnc2[C@@H](Cc2c[nH]c3ccccc23)NC(=O)[C@H]2CCCN2)cc1 [(2R)-N-[(1R)-2-(1H-indol-3-yl)-1-{4-[(4-methoxyphenyl)methyl]-5-(2-phenylethyl)-4H-1,2,4-triazol-3-yl}ethyl]pyrrolidine-2-carboxamide] | 32 |  | 8
COc1ccc(Cn2c(CCc3ccccc3)nnc2[C@@H](Cc2c[nH]c3ccccc23)NC(=O)[C@@H]2CCCN2)cc1 [(2S)-N-[(1R)-2-(1H-indol-3-yl)-1-{4-[(4-methoxyphenyl)methyl]-5-(2-phenylethyl)-4H-1,2,4-triazol-3-yl}ethyl]pyrrolidine-2-carboxamide] | 9.5 |  | 13
COc1ccc(Cn2c(CCc3c[nH]c4ccccc34)nnc2[C@@H](Cc2c[nH]c3ccccc23)NC(=O)[C@@H]2CCCN2)cc1 [(2S)-N-[(1R)-2-(1H-indol-3-yl)-1-{5-[2-(1H-indol-3-yl)ethyl]-4-[(4-methoxyphenyl)methyl]-4H-1,2,4-triazol-3-yl}ethyl]pyrrolidine-2-carboxamide] |  |  | 6
COc1ccc(Cn2c(CCc3ccccc3)nnc2[C@@H](Cc2c[nH]c3ccccc23)NC(=O)[C@H]2CCCNC2)cc1 [(3S)-N-[(1R)-2-(1H-indol-3-yl)-1-{4-[(4-methoxyphenyl)methyl]-5-(2-phenylethyl)-4H-1,2,4-triazol-3-yl}ethyl]piperidine-3-carboxamide] |  |  | 10
COc1ccc(Cn2c(CCc3c[nH]c4ccccc34)nnc2[C@@H](Cc2c[nH]c3ccccc23)NC(=O)[C@@H]2CCCN2)c(OC)c1 |  |  | 11
COc1ccc(Cn2c(CCc3ccccc3)nnc2[C@@H](Cc2c[nH]c3ccccc23)NC(=O)[C@@H](N)Cc2ccccc2)cc1 [(2S)-2-amino-N-[(1R)-2-(1H-indol-3-yl)-1-{4-[(4-methoxyphenyl)methyl]-5-(2-phenylethyl)-4H-1,2,4-triazol-3-yl}ethyl]-3-phenylpropanamide] |  |  | 24
COc1ccc(Cn2c(CCc3ccccc3)nnc2[C@@H](Cc2c[nH]c3ccccc23)NC(=O)[C@H](C)N)cc1 [(S)-N-((R)-1-(4-(4-Methoxybenzyl)-5-phenethyl-4H-1,2,4-triazol-3-yl)-2-(1H-indol-3-yl)ethyl)-2-aminopropanamide] | 113 |  | 
CCc1ccc(Cn2c(CCc3ccccc3)nnc2[C@@H](Cc2c[nH]c3ccccc23)NC(=O)[C@H](C)N)cc1 [(2S)-2-amino-N-[(1R)-1-{4-[(4-ethylphenyl)methyl]-5-(2-phenylethyl)-4H-1,2,4-triazol-3-yl}-2-(1H-indol-3-yl)ethyl]propanamide] | 275 |  | 
COc1ccc(Cn2c(CCc3c[nH]c4ccccc34)nnc2[C@@H](Cc2c[nH]c3ccccc23)NC(=O)CN)c(OC)c1 [2-amino-N-[(1R)-1-{4-[(2,4-dimethoxyphenyl)methyl]-5-[2-(1H-indol-3-yl)ethyl]-4H-1,2,4-triazol-3-yl}-2-(1H-indol-3-yl)ethyl]acetamide] |  |  | 27
COc1ccc(Cn2c(CCc3c[nH]c4ccccc34)nnc2[C@@H](Cc2c[nH]c3ccccc23)NC(=O)C(C)(C)N)cc1 |  |  | 4
O=C(N[C@H](Cc1c[nH]c2ccccc12)c1nnc(CCc2ccccc2)n1Cc1ccccn1)C1CCCNC1 (stereo partly drawn) [N-[(1R)-2-(1H-indol-3-yl)-1-[5-(2-phenylethyl)-4-(pyridin-2-ylmethyl)-4H-1,2,4-triazol-3-yl]ethyl]piperidine-3-carboxamide] | > 1000 |  | 
COc1ccc(Cn2c(CCc3ccccc3)nnc2[C@@H](Cc2c[nH]c3ccccc23)NC(=O)[C@@H]2CCCN2)c(OC)c1 [(2S)-N-[(1R)-1-{4-[(2,4-dimethoxyphenyl)methyl]-5-(2-phenylethyl)-4H-1,2,4-triazol-3-yl}-2-(1H-indol-3-yl)ethyl]pyrrolidine-2-carboxamide] |  |  | 32
